Laboratory results as given in the supplement of paper PMC10307832.

Key:
Experiment in all cases: relative viability (nuclei count vs DMSO), 5 days (fraction); higher = more cells survive
AZ628 + Phenformin = compound: CC1=C(C=C(C=C1)NC(=O)C2=CC(=CC=C2)C(C)(C)C#N)NC3=CC4=C(C=C3)N=CN(C4=O)C [AZ628] + N=C(N)NC(=N)NCCc1ccccc1 [Phenformin] (partner 250 µM)
Procedure, shortened: (§1)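 Each reported value is a median over duplicate plates. It expresses relative viability: treated-well nuclei count divided by vehicle-well nuclei count. Lung cancer cell lines in 1536-well plates were dosed by pin tool a day after seeding, alone with one drug or with a fixed anchor-drug dose plus five library-drug doses (not always all listed) in √10 steps, and nuclei were counted after 5 days.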

AZ628 + AZD7762 = compound: CC1=C(C=C(C=C1)NC(=O)C2=CC(=CC=C2)C(C)(C)C#N)NC3=CC4=C(C=C3)N=CN(C4=O)C [AZ628] + NC(=O)Nc1cc(-c2cccc(F)c2)sc1C(=O)N[C@H]1CCCNC1 [AZD7762] (partner 0.2 µM)
Procedure, shortened: as §1

AZ628 + Tozasertib = compound: CC1=C(C=C(C=C1)NC(=O)C2=CC(=CC=C2)C(C)(C)C#N)NC3=CC4=C(C=C3)N=CN(C4=O)C [AZ628] + Cc1cc(Nc2cc(N3CCN(C)CC3)nc(Sc3ccc(NC(=O)C4CC4)cc3)n2)n[nH]1 [Tozasertib] (partner 0.1 µM)
Procedure, shortened: as §1

QS11 + Luminespib = compound: C1CC2=C(C1)C=C(C=C2)OC3=NC(=C4C(=N3)N(C=N4)CC5=CC=C(C=C5)C6=CC=CC=C6)N[C@@H](CC7=CC=CC=C7)CO [QS11] + CCNC(=O)c1noc(-c2cc(C(C)C)c(O)cc2O)c1-c1ccc(CN2CCOCC2)cc1 [Luminespib] (partner 0.01 µM)
Procedure, shortened: as §1

Cell Line	relative viability (AZ628 + Phenformin; first compound 0.08 µM)	relative viability (AZ628 + Phenformin; first compound 0.253 µM)	relative viability (AZ628 + Phenformin; first compound 0.8 µM)	relative viability (AZ628 + Phenformin; first compound 2.53 µM)	relative viability (AZ628 + Phenformin; first compound 8 µM)	relative viability (AZ628 + AZD7762; first compound 0.08 µM)	relative viability (AZ628 + AZD7762; first compound 0.253 µM)	relative viability (AZ628 + AZD7762; first compound 0.8 µM)	relative viability (AZ628 + AZD7762; first compound 2.53 µM)	relative viability (AZ628 + AZD7762; first compound 8 µM)	relative viability (AZ628 + Tozasertib; first compound 0.08 µM)	relative viability (AZ628 + Tozasertib; first compound 0.253 µM)	relative viability (AZ628 + Tozasertib; first compound 0.8 µM)	relative viability (AZ628 + Tozasertib; first compound 2.53 µM)	relative viability (AZ628 + Tozasertib; first compound 8 µM)	relative viability (QS11 + Luminespib; first compound 0.08 µM)	relative viability (QS11 + Luminespib; first compound 0.253 µM)	relative viability (QS11 + Luminespib; first compound 0.8 µM)	relative viability (QS11 + Luminespib; first compound 2.53 µM)	relative viability (QS11 + Luminespib; first compound 8 µM)
NCI-H650	0.536	0.471	0.552	0.509	0.498	1.14	1.24	1.37	1.14	0.691	0.855	0.713	0.722	0.789	0.446	0.758	0.806	0.802	0.654	0.868
NCI-H727	0.422	0.386	0.374	0.329	0.341	0.504			0.369	0.333	0.551	0.316	0.32	0.404	0.274	0.876	0.391	0.341	0.321	0.341
NCI-H838	0.666	0.551	0.502	0.493	0.474	0.957	0.884	0.915	0.95	0.922	0.27	0.302	0.281	0.288	0.212	0.284	0.246	0.282	0.289	0.275
NCI-H1355	0.502	0.444	0.431	0.411	0.39	0.798	0.754	0.737	0.638	0.541	0.548	0.512	0.628	0.495	0.269	0.743	0.696	0.602	0.727	0.703
NCI-H1395	0.478	0.39	0.423	0.436	0.422	0.431	0.421	0.381	0.372	0.358	0.814	0.809	0.753	0.742	0.681	0.795	0.549	0.762	0.843	0.819
NCI-H1437	0.369	0.266	0.262	0.331	0.318	1.17	1.07	0.657	1.13	0.898	0.402	0.408	0.428	0.418	0.375	1.15	1.2	1.11	1.05	0.947
NCI-H1651	0.396	0.316	0.334	0.312	0.36	0.466	0.393	0.44	0.448	0.318	0.726	0.656	0.579	0.653	0.43	1.05	0.923	0.75	0.714	0.752
NCI-H1666	0.584	0.582	0.543	0.518	0.514	0.837	0.742	0.645	0.737	0.651	0.605	0.567	0.565	0.551	0.479	1.01	1.1	0.702	0.728	0.519
NCI-H1734	0.383	0.346	0.282	0.327	0.247	0.504	0.56	0.561	0.473	0.373	0.258	0.267	0.196	0.243	0.197	0.2	0.199	0.186	0.179	0.168
NCI-H1755	0.614	0.626	0.585	0.589	0.46	0.466	0.385	0.392	0.429	0.356	0.595	0.52	0.532	0.525	0.493	0.403	0.406	0.289	0.422	0.412
NCI-H1793	0.433	0.25	0.333	0.314	0.302	0.52	0.244	0.419	0.319	0.177	0.488	0.335	0.372	0.264	0.18	0.137	0.177	0.171	0.189	0.158
NCI-H1915	0.404	0.388	0.374	0.351	0.233	0.741	0.782	0.644	0.558	0.271	0.429	0.412	0.377	0.309	0.206	0.952	0.959		0.766	0.447
NCI-H1944	0.188	0.181	0.184	0.177	0.187	0.5	0.488	0.454	0.414	0.359	0.26	0.227	0.235	0.249	0.209	0.702	0.864		0.557	0.543
NCI-H1975	0.421	0.388	0.403	0.384	0.215	0.78	0.624	0.711	0.779	0.623	0.794	0.562	0.449	0.453	0.163	0.199	0.33	0.275	0.281	0.2
NCI-H1993	0.46	0.562	0.545	0.523	0.537	0.855	0.546	0.53	0.556	0.571	0.613	0.617	0.591	0.602	0.555	0.831	0.74	0.739	0.77	0.68
NCI-H2085	0.83	0.662	0.784	0.636	0.583	0.997	0.925	1.04	1.01	0.566	0.754	0.899	0.935	0.743	0.382	0.376	0.474	0.286	0.403	0.546
